Assays:
[1] = biological target: T1, IL-17A(FLAG-Tagged): IL-17RA(His-Tagged) (Homo sapiens, UniProt Q16552, K93Q); assay: IL-17A(FLAG-tagged):IL-17RA(His-tagged) binding disruption Eu-HTRF assay, Protocol 2; details: FLAG tagged IL-17A at 2× final concentration (1 nM); simple average if tested more than once
Excerpt: (§1) IL-17A(FLAG-Tagged): IL-17RA(His-Tagged) Binding Disruption Eu-HTRF Assay
(§2) An antibody directed against the FLAG tag of IL-17A (SEQ ID NO:1) is labeled with the HTRF donor chromophore (Europium-cryptate). IL-17A is present as a dimer that is “locked into” this quaternary structure due to the formation of loop-spanning […] disulfide bridges. The construct of IL-17RA used in the assay excludes the outer-membrane portion of the receptor and is fused to a C-terminal 10×His tag (SEQ ID NO:2). An antibody directed against the His tag of the IL-17RA chimera is labeled with the HTRF acceptor chromophore (“D2”). The fluorescence-resonance energy transfer (FRET) depends on the vicinity of the donor chromophore to the acceptor, and interruption of the binding between the IL-17A and IL-17RA causes the reduction/loss of FRET. Therefore, this assay allows to evaluate the compound effect on the binding IL-17A and IL-17RA by monitoring the fluorescence intensity of donor vs acceptor. The assay was run using either Protocol 1 or Protocol 2 described below.
(§3) Protocol 2. 40 nl of 2-fold serial diluted compound solution for total 22 dilution points is added into each well of a 1536-well, white, low-volume, non-binding plate (Greiner #782904), then 2 μl of FLAG tagged IL-17A at 2× final concentration (1 nM) in solution of PBS+0.01% Triton-X100 is added to each well. The assay plate is briefly centrifuged then incubated for 1 h at rt. A mixed solution is prepared containing 2×5 nM 10HIS×IL-17RA, 2×2.5 nM Eu-anti-FLAG (CISBIO), 2×5 nM D2-anti-HIS (CISBIO) in PBS+0.01% Triton-X100+200 mM Potassium Fluoride (Sigma 60238) and […] of mix is added to each well of the assay plate. The plate is briefly centrifuged then incubated for 2 h at rt. The HTRF intensities at the wavelength of donor (615 nm) and acceptor (665 nm) are measured using BMG Pherastar. The ratio between intensities at two wavelengths is calculated and plotted against the compound concentration and the data is fitted to a one-site competition model to yield IC50 of the compound.

[2] = system: IL-17A-induced G-CSF production in human normal keratinocyte (NHK); assay: NHK assay: IL-17A-induced G-CSF production in normal human keratinocytes; assay type: cell-based; details: Homo sapiens, Keratinocyte; IL-17A 5 ng/mL, 24 h at 37° C., G-CSF by HTRF; simple average if tested more than once
Procedure: IL-17A acts directly on keratinocytes through binding to dimeric receptor IL-17RA/RC and drives the production of a number of inflammatory mediators known to be elevated in psoriasis lesional tissue. IL-17A small molecule inhibitors that block the IL-17A to interact with IL-17R would inhibit the IL-17A signaling in its targeted cells such as keratinocytes. The compound functional activity is evaluated for its impact on IL-17A-induced G-CSF production in human normal keratinocyte (NHK).
Adult normal human keratinocytes are cultured in keratinocyte growth medium (Lonza) in a flask till reaching ˜90% confluence, then cells are transferred to a 384-well plate at density of 3000-4000 cell/well. Recombinant human IL-17A (Gibco PHC9174) is pre-incubated with titrated compound or DMSO for 1 h at rt then added to the cell culture plate. The final concentration of IL-17A is 5 ng/mL and DMSO is 0.2%, in the culture containing 5% FBS. Cells are cultured/treated for 24 h at 37° C. Supernatants are collected and G-CSF production is measured through HTRF technology using Human G-CSF Kit (CisBio). G-CSF concentration was extrapolated from the standard curve and IC50 is determined using GraphPad Prism. Cell viability is also evaluated using CellTiter-Glo kit (Promega) and effect of compound on cell viability is compared to DMSO control.

[3] = biological target: T1, IL-17A(FLAG-Tagged): IL-17RA(His-Tagged); assay: IL-17A(FLAG-tagged):IL-17RA(His-tagged) binding disruption Eu-HTRF assay, Protocol 1; details: FLAG tagged IL-17A at 2× final concentration (2.5 nM); simple average if tested more than once
Excerpt: as §1, §2
as §3, with “Protocol 1:” for “Protocol 2.”, “40 nL” for “40 nl”, “concentration (2.5” for “concentration (1”, “donor (620” for “donor (615”

T1 sequence (Q16552 with tags, fused parts or gaps K93Q): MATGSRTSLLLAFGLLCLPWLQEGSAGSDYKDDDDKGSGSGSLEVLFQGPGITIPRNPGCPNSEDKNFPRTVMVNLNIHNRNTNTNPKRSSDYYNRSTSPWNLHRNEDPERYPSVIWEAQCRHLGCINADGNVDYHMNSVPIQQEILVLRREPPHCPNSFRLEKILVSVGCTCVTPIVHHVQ

Row | Structure (SMILES) | IC50 [1] | IC50 [3] | IC50 [2]
1 | COC[C@H](c1cnn2cc([C@@H](NC(=O)c3nonc3C)[C@@H](C)O[C@H](C)C(F)(F)F)nc2c1)N1C[C@@H](C(F)(F)F)NC1=O [Example 27, N-((1R,2R)-1-(7-((S)-2-Methoxy-1-((S)-2-oxo-4-(trifluoromethyl)imidazolidin-1-yl)ethyl)imidazo[1,2-b]pyridazin-2-yl)-2-(((R)-1,1,1-trifluoropropan-2-yl)oxy)propyl)-4-methyl-1,2,5-oxadiazole-3-carboxamide] | < 4 µM | – | < 4 µM
2 | COCC(c1cnn2cc([C@H](COC(C)(C)C(F)(F)F)NC(=O)c3nonc3C)nc2c1)N1C[C@@](C)(C(F)(F)F)NC1=O (some centres unmarked) [Example 23] | < 4 µM | – | < 4 µM
3 | CC(C)n1nccc1C(=O)N[C@H](c1cn2ncc(CN3C[C@H](C)NC3=O)cc2n1)C1CCC(F)(F)CC1 [Example 5, N—((S)—(4,4-Difluorocyclohexyl)(7-(((S)-4-methyl-2-oxoimidazolidin-1-yl)methyl)imidazo[1,2-b]pyridazin-2-yl)methyl)-1-isopropyl-1H-pyrazole-5-carboxamide] | – | < 4 µM | > 10 µM
4 | COC[C@H](c1cnn2cc([C@H](COC(C)(C)C(F)(F)F)NC(=O)c3ncnn3C(C)C)nc2c1)N1C[C@@H](C(F)(F)F)NC1=O [Example 36, 1-Isopropyl-N—((R)-1-(7-((S)-2-methoxy-1-((S)-2-oxo-4-(trifluoromethyl)imidazolidin-1-yl)ethyl)imidazo[1,2-b]pyridazin-2-yl)-2-((1,1,1-trifluoro-2-methylpropan-2-yl)oxy)ethyl)-1H-1,2,4-triazole-5-carboxamide] | – | < 4 µM | < 4 µM
5 | CC(C)n1nccc1C(=O)N[C@H](c1cn2ncc(CN3CCNC3=O)cc2n1)C1CCC(F)(F)CC1 [Example 3, (S)—N-((4,4-Difluorocyclohexyl)(7-((2-oxoimidazolidin-1-yl)methyl)imidazo[1,2-b]pyridazin-2-yl)methyl)-1-isopropyl-1H-pyrazole-5-carboxamide] | – | < 4 µM | < 4 µM
6 | C[C@H]1CN(Cc2cnn3cc([C@@H](NC(=O)c4nonc4C4CC4)C4CCC(F)(F)CC4)nc3c2)C(=O)N1 [Example 4, 4-Cyclopropyl-N—((S)—(4,4-difluorocyclohexyl)(7-(((S)-4-methyl-2-oxoimidazolidin-1-yl)methyl)imidazo[1,2-b]pyridazin-2-yl)methyl)-1,2,5-oxadiazole-3-carboxamide] | – | < 4 µM | < 4 µM
7 | O=C(N[C@H](c1cn2ncc(CN3C(=O)N[C@H]4CC(F)(F)C[C@H]43)cc2n1)C1CCC(F)(F)CC1)c1nonc1C1CC1 (single isomer, unassigned) [Example 8, 4-Cyclopropyl-N—((S)-(7-(((3aS*,6aR*)-5,5-difluoro-2-oxohexahydrocyclopenta[d]imidazol-1(2H)-yl)methyl)imidazo[1,2-b]pyridazin-2-yl)(4,4-difluorocyclohexyl)methyl)-1,2,5-oxadiazole-3-carboxamide] | – | < 4 µM | < 4 µM

The next lines start with results.

Row | IC50 [1] | IC50 [3] | Structure (SMILES) | IC50 [2]
8 | < 4 µM | – | COCCC(c1cnn2cc([C@@H](NC(=O)c3nonc3OC)C3CCC(F)(F)CC3)nc2c1)N1C[C@@H](C(F)(F)F)NC1=O (single isomer, unassigned) [Example 42, N—((S)—(4,4-Difluorocyclohexyl)(7-((R*)-3-methoxy-1-((S)-2-oxo-4-(trifluoromethyl)imidazolidin-1-yl)propyl)imidazo[1,2-b]pyridazin-2-yl)methyl)-4-methoxy-1,2,5-oxadiazole-3-carboxamide] | < 4 µM
9 | < 4 µM | – | COCC[C@H](c1cnn2cc([C@@H](NC(=O)c3nonc3C3CC3)C3CCC(F)(F)CC3)nc2c1)N1C[C@@H](C(F)(F)F)NC1=O [Example 41, 4-Cyclopropyl-N—((S)—(4,4-difluorocyclohexyl)(7-((R)-3-methoxy-1-((S)-2-oxo-4-(trifluoromethyl)imidazolidin-1-yl)propyl)imidazo[1,2-b]pyridazin-2-yl)methyl)-1,2,5-oxadiazole-3-carboxamide] | < 4 µM
10 | < 4 µM | – | Cc1nonc1C(=O)N[C@@H](COC(C)(C)C(F)(F)F)c1cn2ncc([C@@H](COC3CC3)N3C[C@@H](C(F)(F)F)NC3=O)cc2n1 [Example 45] | < 4 µM
11 | < 4 µM | – | Cc1nonc1C(=O)N[C@@H](CC(C)(C)C(F)(F)F)c1cn2ncc([C@@H](COC3CC3)N3C[C@@H](C(F)(F)F)NC3=O)cc2n1 [Example 37] | < 4 µM
12 | < 4 µM | – | COC[C@H](c1cnn2cc([C@H](CCC(C)(C)C(F)(F)F)NC(=O)c3nonc3OC)nc2c1)N1C[C@@](C)(C(F)(F)F)NC1=O [Example 47, 4-Methoxy-N—((S)-5,5,5-trifluoro-1-(7-((S)-2-methoxy-((S)-4-methyl-2-oxo-4-(trifluoromethyl)imidazolidin-1-yl)ethyl)imidazo[1,2-b]pyridazin-2-yl)-4,4-dimethylpentyl)-1,2,5-oxadiazole-3-carboxamide] | < 4 µM
13 | < 4 µM | – | Cc1nonc1C(=O)N[C@@H](CCC(C)(C)C(F)(F)F)c1cn2ncc(CN3C[C@@](C)(C(F)(F)F)NC3=O)cc2n1 [Example 48, 4-Methyl-N—((S)-5,5,5-trifluoro-4,4-dimethyl-1-(7-(((S)-4-methyl-2-oxo-4-(trifluoromethyl)imidazolidin-1-yl)methyl)imidazo[1,2-b]pyridazin-2-yl)pentyl)-1,2,5-oxadiazole-3-carboxamide] | < 4 µM
14 | < 4 µM | – | CC(C)n1nccc1C(=O)N[C@H](c1cn2ncc([C@@H](COC3CC3)N3C[C@@H](C(F)(F)F)NC3=O)cc2n1)C1CCC(F)(F)CC1 (single isomer, unassigned) [Example 43] | < 4 µM
15 | < 4 µM | – | Cc1nonc1C(=O)N[C@@H](CCC(C)(C)C(F)(F)F)c1cn2ncc(CN3C[C@](C)(C(F)(F)F)NC3=O)cc2n1 [Example 49, 4-Methyl-N—((S)-5,5,5-trifluoro-4,4-dimethyl-1-(7-(((R)-4-methyl-2-oxo-4-(trifluoromethyl)imidazolidin-1-yl)methyl)imidazo[1,2-b]pyridazin-2-yl)pentyl)-1,2,5-oxadiazole-3-carboxamide] | < 4 µM
16 | < 4 µM | – | COCCC(c1cnn2cc([C@@H](NC(=O)c3nonc3C)C3CCC(F)(F)CC3)nc2c1)N1C[C@@H](C(F)(F)F)NC1=O (single isomer, unassigned) [Example 40, N—((S)—(4,4-Difluorocyclohexyl)(7-((R*)-3-methoxy-1-((S)-2-oxo-4-(trifluoromethyl)imidazolidin-1-yl)propyl)imidazo[1,2-b]pyridazin-2-yl)methyl)-4-methyl-1,2,5-oxadiazole-3-carboxamide] | < 4 µM
